The text below walks through data of US10611740B2, “Aryl dihydro-2H-benzo[b][1,4]oxazine sulfonamide and related compounds for use as agonists of RORγ and the treatment of disease” (Lycera Corporation, priority 2015, dated 2020).

Some results are limits rather than exact numbers.

In one assay the target is T1, Gal4-RORγ-LBD (Homo sapiens, UniProt P51449).
T1 construct: expressed in transfected cells; host or cells: HEK-293 cells (pcDNA3.1neo plasmid)
T1 sequence (P51449 269-508 limits assumed): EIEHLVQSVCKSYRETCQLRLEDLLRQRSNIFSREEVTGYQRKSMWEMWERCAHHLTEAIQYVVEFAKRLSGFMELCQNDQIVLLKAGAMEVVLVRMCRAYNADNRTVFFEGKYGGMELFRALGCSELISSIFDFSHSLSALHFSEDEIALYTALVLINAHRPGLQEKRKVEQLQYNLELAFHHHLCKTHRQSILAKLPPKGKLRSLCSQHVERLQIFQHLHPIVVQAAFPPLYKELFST
Description: Gal4-RORγ Luciferase Reporter Assay in HEK-293T Cells. Particulars: HEK-293 cells. Type of assay: cell-based. In a few lines: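 In transfected HEK-293 cells (Gal4-RORγ-LBD, Gal4-luciferase), test agents with 2 μM ursolic acid were incubated overnight at 37 °C before luminescent detection. Values are relative to the ursolic-acid-free, compound-free signal (100).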
For orientation: A reporter such as luciferase makes a cellular process visible.

The next assay has as its target T2, RORγ-LBD (Homo sapiens, UniProt P51449).
T2 construct: made in house; host or cells: SF9 cells (baculovirus)
T2 sequence (P51449 269-508 limits assumed): T1 sequence (P51449 269-508 limits assumed)
Kind of assay: RORγ-Ligand Binding Domain (LBD) TR-FRET Assay.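 For TR-FRET Assay Max Response: 665/615 nm ratio relative to signal without ursolic acid or compound set at 100.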 Type of assay: biochemical. In a few lines: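 Lysate from SF9 cells expressing His-RORγ-LBD is diluted to about 3 nM final in 50 mM Tris pH 7.0 assay buffer. A biotin-tagged SRC1 LXXLL peptide goes in at 200 nM final, plus ursolic acid at 2 μM final. Test compounds carry 1% DMSO final; signal read by TR-FRET.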

The mark [1] stands for this setting: luciferase reporter, with 2 μM ursolic acid.

As for `Cc1cnc(-c2ccc3c(c2)N(S(=O)(=O)c2cccc(C(F)(F)F)c2)C[C@H](CCC(=O)O)O3)o1` [Compound 26, (S)-3-(6-(5-methyloxazol-2-yl)-4-((3-(trifluoromethyl)phenyl)sulfonyl)-3,4-dihydro-2H-benzo[b][1,4]oxazin-2-yl)propanoic acid], at Gal4-RORγ-LBD (setting [1]), the EC50 was in the range of 500 to 5000 nM and the “Gal4-RORγ Assay Max Response” value is on record as “* (The symbol “*” indicates a value in the range of 25 to 90)”. On RORγ-LBD, the EC50 lay in the range of 500 to 5000 nM and the “TR-FRET Assay Max Response” value is “*** (The symbol “***” indicates a value in the range of greater than 150 to 200)”.
As to `CC(C)(C[C@H]1CN(S(=O)(=O)c2cccc(C(F)(F)F)c2)c2cc(-c3cccc(OC(F)F)c3F)ccc2O1)C(=O)O` [Compound 32BJ, (S)-3-(6-(3-(difluoromethoxy)-2-fluorophenyl)-4-((3-(trifluoromethyl)phenyl)sulfonyl)-3,4-dihydro-2H-benzo[b][1,4]oxazin-2-yl)-2,2-dimethylpropanoic acid], at Gal4-RORγ-LBD (2 μM ursolic acid), the EC50 is under 500 nM and the “Gal4-RORγ Assay Max Response” value is “** (The symbol “**” indicates a value in the range of greater than 90 to 150)”. At RORγ-LBD, the 50% effective concentration (EC50) is under 500 nM and the “TR-FRET Assay Max Response” value is on record as “*** (The symbol “***” indicates a value in the range of greater than 150 to 200)”.
As to `CC(=O)N[C@H]1C[C@H](C[C@H]2CN(S(=O)(=O)c3cccc(C(F)(F)F)c3)c3cc(-c4cc(F)ccc4F)ccc3O2)C1` [Compound 60E, N-((1S,3r)-3-(((S)-6-(2,5-difluorophenyl)-4-((3-(trifluoro-methyl)phenyl)sulfonyl)-3,4-dihydro-2H-benzo[b][1,4]oxazin-2-yl)methyl)cyclobutyl)-acetamide], at Gal4-RORγ-LBD (2 μM ursolic acid), the EC50 is under 500 nM and the “Gal4-RORγ Assay Max Response” value is given as “** (The symbol “**” indicates a value in the range of greater than 90 to 150)”. In addition, at RORγ-LBD, the EC50 is under 500 nM and the “TR-FRET Assay Max Response” value is listed as “*** (The symbol “***” indicates a value in the range of greater than 150 to 200)”.
For the molecule `CCOc1nn(CC)cc1S(=O)(=O)N1C[C@H](CCC(=O)O)Oc2ccc(-c3cccc(Cl)c3)cc21` [Compound 6A, (S)-3-(6-(3-chlorophenyl)-4-((3-ethoxy-1-ethyl-1H-pyrazol-4-yl)sulfonyl)-3,4-dihydro-2H-benzo[b][1,4]oxazin-2-yl)propanoic acid], at Gal4-RORγ-LBD (setting [1]), the EC50 was in the range of 500 to 5000 nM and the “Gal4-RORγ Assay Max Response” value is given as “* (The symbol “*” indicates a value in the range of 25 to 90)”. At RORγ-LBD, the EC50 was under 500 nM and the “TR-FRET Assay Max Response” value is “*** (The symbol “***” indicates a value in the range of greater than 150 to 200)”.
For `O=S(=O)(c1cccc(C(F)(F)F)c1)N1C[C@H](CCCO)Oc2ccc(-c3ccc(F)c(F)c3)cc21` [Compound 34B, (S)-3-(6-(3,4-difluorophenyl)-4-((3-(trifluoromethyl)phenyl)-sulfonyl)-3,4-dihydro-2H-benzo[b][1,4]oxazin-2-yl)propan-1-ol], on Gal4-RORγ-LBD (setting [1]), the EC50 was under 500 nM and the “Gal4-RORγ Assay Max Response” value is listed as “* (The symbol “*” indicates a value in the range of 25 to 90)”. Besides, at RORγ-LBD, the EC50 was under 500 nM and the “TR-FRET Assay Max Response” value is “**** (The symbol “****” indicates a value greater than 200)”.
Regarding `CC(C)(C[C@H]1CN(S(=O)(=O)c2cccc(C(F)(F)F)c2)c2cc(-c3cc(F)ccc3F)ccc2O1)C(=O)O` [Compound 31, (S)-3-(6-(2,5-difluorophenyl)-4-((3-(trifluoromethyl)phenyl)sulfonyl)-3,4-dihydro-2H-benzo[b][1,4]oxazin-2-yl)-2,2-dimethylpropanoic Acid], at Gal4-RORγ-LBD (setting [1]), the EC50 is under 500 nM and the “Gal4-RORγ Assay Max Response” value was “** (The symbol “**” indicates a value in the range of greater than 90 to 150)”. On RORγ-LBD, the EC50 was under 500 nM and the “TR-FRET Assay Max Response” value is reported as “**** (The symbol “****” indicates a value greater than 200)”.
`Cc1ccc(Cl)c(-c2ccc3c(c2)N(S(=O)(=O)c2cccc(C(F)(F)F)c2)C[C@H](CCC(=O)O)O3)c1` [Compound 2BK, (S)-3-(6-(2-chloro-5-methyl-phenyl)-4-((3-(trifluoromethyl)-phenyl)sulfonyl)-3,4-dihydro-2H-benzo[b][1,4]oxazin-2-yl)propanoic acid]: at Gal4-RORγ-LBD (setting [1]), the EC50 is under 500 nM and the “Gal4-RORγ Assay Max Response” value was “** (The symbol “**” indicates a value in the range of greater than 90 to 150)”. At RORγ-LBD, the EC50 was under 500 nM and the “TR-FRET Assay Max Response” value is recorded as “*** (The symbol “***” indicates a value in the range of greater than 150 to 200)”.
For the molecule `COc1cccc(-c2ccc3c(c2)N(S(=O)(=O)c2cccc(C(F)(F)F)c2)C[C@H](CCC(=O)NCC(=O)O)O3)c1` [Compound 23K, (S)-(3-(6-(3-methoxyphenyl)-4-((3-(trifluoromethyl)-phenyl)sulfonyl)-3,4-dihydro-2H-benzo[b][1,4]oxazin-2-yl)propanoyl)glycine], on Gal4-RORγ-LBD (setting [1]), the EC50 was 500 to 5000 nM and the “Gal4-RORγ Assay Max Response” value is reported as “** (The symbol “**” indicates a value in the range of greater than 90 to 150)”. On RORγ-LBD, the EC50 is under 500 nM and the “TR-FRET Assay Max Response” value is listed as “**** (The symbol “****” indicates a value greater than 200)”.
For `CC(C)(C[C@H]1CN(S(=O)(=O)c2cccc(C(F)(F)F)c2)c2cc(-c3cccc(OC(F)(F)F)c3)ccc2O1)C(=O)O` [Compound 32F, (S)-2,2-dimethyl-3-(6-(3-(trifluoromethoxy)phenyl)-4-((3-(trifluoromethyl)phenyl)sulfonyl)-3,4-dihydro-2H-benzo[b][1,4]oxazin-2-yl)propanoic acid] the same measures were under 500 nM, “** (The symbol “**” indicates a value in the range of greater than 90 to 150)”, under 500 nM and “**** (The symbol “****” indicates a value greater than 200)”.
For `CC(C)(O)C(=O)NC[C@H]1CN(S(=O)(=O)c2cncc(C(F)(F)F)c2)c2cc(-c3cc(F)ccc3F)ccc2O1` [Compound 30U, (S)-N-((6-(2,5-difluorophenyl)-4-((5-(trifluoromethyl)pyridin-3-yl)sulfonyl)-3,4-dihydro-2H-benzo[b][1,4]oxazin-2-yl)methyl)-2-hydroxy-2-methylpropanamide] the same measures were under 500 nM, “** (The symbol “**” indicates a value in the range of greater than 90 to 150)”, under 500 nM and “*** (The symbol “***” indicates a value in the range of greater than 150 to 200)”.
`CC(C)(C[C@H]1CN(S(=O)(=O)c2cccc(C(F)(F)F)c2)c2cc(-c3ccccc3OC(F)(F)F)ccc2O1)C(=O)O` [Compound 32Z, (S)-2,2-dimethyl-3-(6-(2-(trifluoromethoxy)phenyl)-4-((3-(trifluoromethyl)phenyl)sulfonyl)-3,4-dihydro-2H-benzo[b][1,4]-oxazin-2-yl)propanoic acid]: at Gal4-RORγ-LBD (2 μM ursolic acid), the EC50 was under 500 nM and the “Gal4-RORγ Assay Max Response” value was “** (The symbol “**” indicates a value in the range of greater than 90 to 150)”. Further, on RORγ-LBD, the EC50 is under 500 nM and the “TR-FRET Assay Max Response” value is “*** (The symbol “***” indicates a value in the range of greater than 150 to 200)”.

As a reminder, the EC50 is the midpoint of the concentration-response curve. A lower EC50 goes with higher potency in that assay.
